Measurements taken from patent publication US10227357B2, “Compounds and methods for kinase modulation, and indications therefor” (Plexxikon Inc., priority 2012, dated 2019).

Columns and labels:
c-kit kinase = target: T1, c-kit kinase (Homo sapiens, UniProt P10721); assay: c-Kit biochemical assay, AlphaScreen, 10 μM ATP; conditions: c-kit biochemical inhibitory activity; read-out: Biochemical activity (IC50 μM) Kit
T1 construct: The c-kit (or kinase domain thereof) is an active kinase in AlphaScreen; poly-Histidine tag (in-house protein only) (cleaved yes); host or cells: E. coli BL21(DE3)RIL, co-expressed with PTP1B
T1 sequence (P10721 26-976): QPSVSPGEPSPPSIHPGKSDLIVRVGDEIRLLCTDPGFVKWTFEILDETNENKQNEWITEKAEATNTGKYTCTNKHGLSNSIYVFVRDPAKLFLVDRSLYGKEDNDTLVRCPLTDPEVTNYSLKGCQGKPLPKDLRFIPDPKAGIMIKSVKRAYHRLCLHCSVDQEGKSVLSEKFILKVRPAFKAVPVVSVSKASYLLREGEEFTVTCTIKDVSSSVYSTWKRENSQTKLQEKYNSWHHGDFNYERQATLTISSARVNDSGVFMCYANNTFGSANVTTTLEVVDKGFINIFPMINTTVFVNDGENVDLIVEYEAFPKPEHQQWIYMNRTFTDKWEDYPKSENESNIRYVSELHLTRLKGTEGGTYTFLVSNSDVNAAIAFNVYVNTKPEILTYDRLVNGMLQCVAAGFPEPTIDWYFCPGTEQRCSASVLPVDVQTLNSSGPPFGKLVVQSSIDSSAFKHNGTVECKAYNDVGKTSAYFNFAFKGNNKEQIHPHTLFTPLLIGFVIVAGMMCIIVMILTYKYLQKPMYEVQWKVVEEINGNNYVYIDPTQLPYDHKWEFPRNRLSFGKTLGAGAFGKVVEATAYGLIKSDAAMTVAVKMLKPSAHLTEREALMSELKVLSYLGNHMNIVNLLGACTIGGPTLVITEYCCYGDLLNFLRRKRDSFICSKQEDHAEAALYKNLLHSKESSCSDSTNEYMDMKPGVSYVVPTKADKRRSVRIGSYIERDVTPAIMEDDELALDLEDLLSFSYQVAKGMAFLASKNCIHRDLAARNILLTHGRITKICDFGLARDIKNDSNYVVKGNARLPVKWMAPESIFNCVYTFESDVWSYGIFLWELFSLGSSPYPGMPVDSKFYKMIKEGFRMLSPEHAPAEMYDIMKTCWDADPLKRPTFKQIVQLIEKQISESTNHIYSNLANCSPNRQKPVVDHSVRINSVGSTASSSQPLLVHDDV
In short: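 His-tagged c-Kit expressed in E. coli with co-expressed PTP1B (dephosphorylated), tag removed; 0.1 ng per reaction with biotinylated-peptide substrate in 50 mM HEPES pH 7.2, 5 mM MgCl2, 5 mM MnCl2, 5% DMSO, 10 μM ATP, 1 h at room temperature. Phosphorylation detected by AlphaScreen (streptavidin donor, PY20 acceptor beads); IC50 from 8-point 1:3 dilution series.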

c-kit mutant D816V = target: T2, c-kit mutant D816V (Homo sapiens, UniProt P10721, D816V/DEL694-753); assay: c-Kit mutant D816V biochemical assay, AlphaScreen; conditions: c-kit D816V biochemical inhibitory activity; read-out: Biochemical activity (IC50 μM) Kit D816V
T2 construct: residues 551-934, kinase insertion domain residues 694-753 deleted; 6x-histidine (N); made in house; host or cells: E. coli Arctic Express (DE3) RIL (Stratagene)
T2 sequence (P10721 with tags, fused parts or gaps DEL694-753/D816V): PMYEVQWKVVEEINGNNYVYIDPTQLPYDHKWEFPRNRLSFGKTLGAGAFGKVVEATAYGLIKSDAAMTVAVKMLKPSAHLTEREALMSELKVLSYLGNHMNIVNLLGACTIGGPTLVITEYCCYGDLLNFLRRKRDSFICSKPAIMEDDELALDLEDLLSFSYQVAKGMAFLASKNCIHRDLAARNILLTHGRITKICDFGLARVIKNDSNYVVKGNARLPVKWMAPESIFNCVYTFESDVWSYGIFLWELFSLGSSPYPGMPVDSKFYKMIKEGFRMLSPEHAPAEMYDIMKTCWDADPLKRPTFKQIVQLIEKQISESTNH
In short: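 Eight-point, threefold compound series incubated 30 min at room temperature with E. coli-produced D816V kinase, 10 μM ATP, Mg2+/Mn2+ HEPES buffer pH 7.2 and 5% DMSO. After EDTA stop, streptavidin and anti-phosphotyrosine (PY20) AlphaScreen beads gave the read-out, and IC50 was fitted from the concentration–signal curve.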

| Structure (SMILES) | IC50 (c-kit kinase) [µM] | IC50 (c-kit mutant D816V) [µM] |
| --- | --- | --- |
| Cc1nn(C)cc1-c1cc2ncnc(C3CCN(C(=O)N[C@@H](C)c4ccc(F)cc4)CC3)c2s1 [P-0603, 4-[6-(1,3-dimethylpyrazol-4-yl)thieno[3,2-d]pyrimidin-4-yl]-N-[(1S)-1-(4-fluorophenyl)ethyl]piperidine-1-carboxamide] | 10 to 200 | 1 to 10 |
| Cc1nn(C)cc1-c1cc2ncnc(C3CCN(C(=O)NCc4ccc(F)cc4)CC3)c2s1 [P-0604, 4-[6-(1,3-dimethylpyrazol-4-yl)thieno[3,2-d]pyrimidin-4-yl]-N-[(4-fluorophenyl)methyl]piperidine-1-carboxamide] | 1 to 10 | 0.0001 to 1 |
| COc1cccc([C@@H](C)NC(=O)N2CCN(c3ncnc4cc(-c5ccc(F)cc5)sc34)C[C@H]2C)c1 [P-0605, (2R)-4-[6-(4-fluorophenyl)thieno[3,2-d]pyrimidin-4-yl]-N-[(1R)-1-(3-methoxyphenyl)ethyl]-2-methyl-piperazine-1-carboxamide] | 10 to 200 | 10 to 200 |
| C[C@@H]1CN(c2ncnc3cc(-c4ccc(F)cc4)sc23)CCN1C(=O)N[C@H](C)c1ccc(F)cc1 [P-0606, (2R)-N-[(1R)-1-(4-fluorophenyl)ethyl]-4-[6-(4-fluorophenyl)thieno[3,2-d]pyrimidin-4-yl]-2-methyl-piperazine-1-carboxamide] | 10 to 200 | 1 to 10 |
| Cc1nn(C)cc1-c1cc2ncnc(C3CCNCC3)c2s1 [P-0607, 6-(1,3-dimethylpyrazol-4-yl)-4-(4-piperidyl)thieno[3,2-d]pyrimidine] | 1 to 10 | 10 to 200 |
| COc1cccc([C@@H](C)NC(=O)N2CCN(c3ncnc4cc(-c5cn(C)nc5C)sc34)C[C@H]2C)c1 [P-0608, (2R)-4-[6-(1,3-dimethylpyrazol-4-yl)thieno[3,2-d]pyrimidin-4-yl]-N-[(1R)-1-(3-methoxyphenyl)ethyl]-2-methyl-piperazine-1-carboxamide] | 10 to 200 | 0.0001 to 1 |
| Cc1nn(C)cc1-c1cc2ncnc(N3CCN(C(=O)N[C@H](C)c4ccc(F)cc4)[C@H](C)C3)c2s1 [P-0609, (2R)-4-[6-(1,3-dimethylpyrazol-4-yl)thieno[3,2-d]pyrimidin-4-yl]-N-[(1R)-1-(4-fluorophenyl)ethyl]-2-methyl-piperazine-1-carboxamide] | 1 to 10 | 0.0001 to 1 |
| Cc1nn(C)cc1-c1cc2ncnc(N3CCN(C(=O)NCc4ccc(F)cc4)[C@H](C)C3)c2s1 [P-0610, (2R)-4-[6-(1,3-dimethylpyrazol-4-yl)thieno[3,2-d]pyrimidin-4-yl]-N-[(4-fluorophenyl)methyl]-2-methyl-piperazine-1-carboxamide] | 1 to 10 | 0.0001 to 1 |
| Cc1ccc(S(=O)(=O)Nc2ccc(-c3ncnc4cc(C5=CCNCC5)sc34)cc2)cc1 [P-0611, 4-methyl-N-[4-[6-(1,2,3,6-tetrahydropyridin-4-yl)thieno[3,2-d]pyrimidin-4-yl]phenyl]benzenesulfonamide] | 0.0001 to 1 | 0.0001 to 1 |
| Cc1nn(C)cc1-c1cc2ncnc(C3=CCN(C(=O)Nc4ccc(Cl)cc4)CC3)c2s1 [P-0612, N-(4-chlorophenyl)-4-[6-(1,3-dimethylpyrazol-4-yl)thieno[3,2-d]pyrimidin-4-yl]-3,6-dihydro-2H-pyridine-1-carboxamide] | 0.0001 to 1 | 0.0001 to 1 |
| Cc1nn(C)cc1-c1cc2ncnc(C3=CCN(C(=O)NCc4ccc(F)cc4)CC3)c2s1 [P-0613, 4-[6-(1,3-dimethylpyrazol-4-yl)thieno[3,2-d]pyrimidin-4-yl]-N-[(4-fluorophenyl)methyl]-3,6-dihydro-2H-pyridine-1-carboxamide] | 1 to 10 | 0.0001 to 1 |
| Cc1ccc(S(=O)(=O)Nc2ccc(-c3ncnc4cc(C5=CCN(C(=O)OC(C)(C)C)CC5)sc34)cc2)cc1 [P-0614, tert-butyl 4-[4-[4-(p-tolylsulfonylamino)phenyl]thieno[3,2-d]pyrimidin-6-yl]-3,6-dihydro-2H-pyridine-1-carboxylate] | 1 to 10 | 0.0001 to 1 |
| O=C(NCc1ccc(F)cc1)N1CCN(c2ncnc3cc(C4=CCNCC4)sc23)CC1 [P-0615, N-[(4-fluorophenyl)methyl]-4-[6-(1,2,3,6-tetrahydropyridin-4-yl)thieno[3,2-d]pyrimidin-4-yl]piperazine-1-carboxamide] | 1 to 10 | 0.0001 to 1 |
| CC(C)(C)OC(=O)N1CC=C(c2cc3ncnc(N4CCN(C(=O)NCc5ccc(F)cc5)CC4)c3s2)CC1 [P-0616, tert-butyl 4-[4-[4-[(4-fluorophenyl)methylcarbamoyl]piperazin-1-yl]thieno[3,2-d]pyrimidin-6-yl]-3,6-dihydro-2H-pyridine-1-carboxylate] | 1 to 10 | 0.0001 to 1 |
| Cn1cc(-c2cc3ncnc(C4=CC(C)(C)NC(C)(C)C4)c3s2)cn1 [P-0617, 6-(1-methylpyrazol-4-yl)-4-(2,2,6,6-tetramethyl-1,3-dihydropyridin-4-yl)thieno[3,2-d]pyrimidine] | 10 to 200 | 10 to 200 |
| Cc1nn(C)c(C)c1-c1cc2ncnc(N3CCN(C(=O)NCc4ccc(F)cc4)CC3)c2s1 [P-0618, N-[(4-fluorophenyl)methyl]-4-[6-(1,3,5-trimethylpyrazol-4-yl)thieno[3,2-d]pyrimidin-4-yl]piperazine-1-carboxamide] | 1 to 10 | 1 to 10 |
| Cc1nn(C)cc1-c1cc2ncnc(N3CCN(C(=O)NCc4ccc(F)cc4)CC3)c2s1 [P-0619, 4-[6-(1,3-dimethylpyrazol-4-yl)thieno[3,2-d]pyrimidin-4-yl]-N-[(4-fluorophenyl)methyl]piperazine-1-carboxamide] | 1 to 10 | 0.0001 to 1 |
| Cc1c(-c2cc3ncnc(N4CCN(C(=O)NCc5ccc(F)cc5)CC4)c3s2)cnn1C [P-0620, 4-[6-(1,5-dimethylpyrazol-4-yl)thieno[3,2-d]pyrimidin-4-yl]-N-[(4-fluorophenyl)methyl]piperazine-1-carboxamide] | 1 to 10 | 0.0001 to 1 |
| Cn1cc(-c2cc3ncnc(-c4ccc(N)nc4)c3s2)cn1 [P-0621, 5-[6-(1-methylpyrazol-4-yl)thieno[3,2-d]pyrimidin-4-yl]pyridin-2-amine] | 1 to 10 | 1 to 10 |
| Cc1cc2ncnc(-c3ccc(NS(C)(=O)=O)cc3)c2s1 [P-0622, N-[4-(6-methylthieno[3,2-d]pyrimidin-4-yl)phenyl]methanesulfonamide] | 10 to 200 | 1 to 10 |
| Cc1ccc(S(=O)(=O)Nc2ccc(-c3ncnc4cc(C)sc34)cc2)cc1 [P-0623, 4-methyl-N-[4-(6-methylthieno[3,2-d]pyrimidin-4-yl)phenyl]benzenesulfonamide] | 1 to 10 | 0.0001 to 1 |
| O=C(NCc1ccc(F)cc1)N1CCN(c2ncnc3cc(-c4cnn(CCN5CCOCC5)c4)sc23)CC1 [P-0624, N-[(4-fluorophenyl)methyl]-4-[6-[1-(2-morpholinoethyl)pyrazol-4-yl]thieno[3,2-d]pyrimidin-4-yl]piperazine-1-carboxamide] | 1 to 10 | 0.0001 to 1 |
| Cn1cc(-c2cc3ncnc(N4CCN(C(=O)NCc5ccccc5)CC4)c3s2)cn1 [P-0626, N-benzyl-4-[6-(1-methylpyrazol-4-yl)thieno[3,2-d]pyrimidin-4-yl]piperazine-1-carboxamide] | 10 to 200 | 1 to 10 |
| O=C(NCc1ccc(F)cc1)N1CCN(c2ncnc3ccsc23)CC1 [P-0638, N-[(4-fluorophenyl)methyl]-4-thieno[3,2-d]pyrimidin-4-yl-piperazine-1-carboxamide] | 10 to 200 | 10 to 200 |
| Cc1cc2c(N3CCN(C(=O)N[C@@H](C)c4cccc(Cl)c4)C(C)(C)C3)ncnc2[nH]1 [P-0641, N-[(1S)-1-(3-chlorophenyl)ethyl]-2,2-dimethyl-4-(6-methyl-7H-pyrrolo[2,3-d]pyrimidin-4-yl)piperazine-1-carboxamide] | 10 to 200 | 0.0001 to 1 |
| C[C@H](NC(=O)N1CCN(c2ncnc3[nH]c(-c4ccc(F)cc4)cc23)CC1(C)C)c1ccc(F)cc1 [P-0642, N-[(1S)-1-(4-fluorophenyl)ethyl]-4-[6-(4-fluorophenyl)-7H-pyrrolo[2,3-d]pyrimidin-4-yl]-2,2-dimethyl-piperazine-1-carboxamide] | 1 to 10 | 0.0001 to 1 |
| COc1cc(-c2cc3c(N4CCN(C(=O)N[C@@H](C)c5ccc(F)cc5)C(C)(C)C4)ncnc3[nH]2)ccn1 [P-0643] | 1 to 10 | 0.0001 to 1 |
| Cc1cc2c(N3CCN(C(=O)N[C@@H](C)c4ccc(F)cc4)C(C)(C)C3)ncnc2[nH]1 [P-0644, N-[(1S)-1-(4-fluorophenyl)ethyl]-2,2-dimethyl-4-(6-methyl-7H-pyrrolo[2,3-d]pyrimidin-4-yl)piperazine-1-carboxamide] | 10 to 200 | 1 to 10 |
| Cc1cc2c(N3CCN(C(=O)N[C@@H](C)c4cccc(OC(F)F)c4)C(C)(C)C3)ncnc2[nH]1 [P-0645, N-[(1S)-1-[3-(difluoromethoxy)phenyl]ethyl]-2,2-dimethyl-4-(6-methyl-7H-pyrrolo[2,3-d]pyrimidin-4-yl)piperazine-1-carboxamide] | 10 to 200 | 1 to 10 |
